Measurements as given in paper PMC9981206 (Cancer Research Communications, 2022).
Values joined by “and” are separate entries in the source; they are usually repeats but may differ in a detail not shown here. Equal entries are not always repeated. Where two headings read alike, the source gives them in different places.

What was measured:
PARP1 = PARP1 (Homo sapiens, UniProt P09874); settings: biochemical assay; cited from earlier work
MYC signaling = experiment: Immunoblot and real-time qRT-PCR, MYC signaling in cancer cell lines; format: cell-based, human; settings: 10 nmol/L, 24 hours, all TNKSi-sensitive cell lines
Text: (§1) The cell cultures were kept below 20 passages (∼10 weeks) and routinely monitored (upon thawing and monthly) for Mycoplasma infections with MycoAlert Mycoplasma Detection Kit (Lonza). All cell lines were authenticated by short tandem repeat profiling to confirm their identity (Eurofins). TNKS1/2 and PARP1 biochemical assays ([27, 32]), luciferase-based WNT/β-catenin signaling pathway reporter assay ([22, 27, 32]), anti-proliferative assays, and NCI-60 tumor cell line panel screen ([7]), immunoblot analyses ([7, 32, 39]), RNA isolation, and real-time qRT-PCR ([7, 27, 39, 40]) were performed as previously described.
(§2) Prostate (Pro) and central nervous system (CNS). […] Mean ± SD values for data from one representative experiment of more than three repeated assays, each with six replicates, are shown. C, Evaluation of WNT/β-catenin signaling. Left, immunoblots of cytoplasmic AXIN1 and nuclear active form of β-catenin [non-phospho (Ser33/37/Thr41)] and total β-catenin. Lamin B1 loading controls are duplicated for OVCAR-4 immunoblots. Right, real-time RT-qPCR analysis of the WNT/β-catenin signaling target gene AXIN2. […] Immunoblots show representative data from two or more independent experiments. Actin (cytoplasm) and lamin B1 (nucleus) were used as loading controls. […]

[1] = test system: RKO colon carcinoma cells; settings: 5 days of cultivation; cited from earlier work
OVCAR-4 cells = experiment: MTS colorimetric cell growth assay, OVCAR-4; format: cell-based, human
Text: as §1, §2

WNT/β-catenin signaling [2] = settings: HEK293 cells, mean ± SD; read-out: WNT reporter IC50; cited from earlier work
YAP signaling = experiment: Immunoblot and real-time qRT-PCR, YAP signaling in cancer cell lines; format: cell-based, human; settings: 10 nmol/L, 24 hours
Text: as §1, §2

[3] = test system: COLO 320DM colon carcinoma cells; settings: cited from earlier work
ABC-1 cells = experiment: MTS colorimetric cell growth assay, ABC-1; format: cell-based; settings: Homo sapiens, ABC-1, 120 h
Text: as §1, §2

[4] = Dose escalation experiment (acute toxicity, MTD); settings: 500, 1,000, 1,500, or 2,000 mg/kg oral twice daily, single male CD-1 mice
Protocol: The dose escalation experiment was performed in single male CD-1 mice (CRL: 022, RRID: IMSR_CRL: 022, Charles River) at BSL BIOSERVICE/Eurofins using their standard protocol. […] Body weight was recorded daily.

WNT/β-catenin signaling [5] = experiment: Immunoblot and real-time qRT-PCR, WNT/β-catenin signaling in cancer cell lines; format: cell-based, human; settings: 10 nmol/L, 24 hours
Text: as §1
Prostate (Pro) and central nervous system (CNS). […] Mean ± SD values for data from one representative experiment of more than three repeated assays, each with six replicates, are shown. C, Evaluation of WNT/β-catenin signaling. Left, immunoblots of cytoplasmic AXIN1 and nuclear active form of β-catenin [non-phospho (Ser33/37/Thr41)] and total β-catenin. Lamin B1 loading controls are duplicated for OVCAR-4 immunoblots. Right, real-time RT-qPCR analysis of the WNT/β-catenin signaling target gene AXIN2. […] Immunoblots show representative data from two or more independent experiments. Actin (cytoplasm) and lamin B1 (nucleus) were used as loading controls. Boxplots show median, first, and third quartiles and maximum and minimum whiskers for combined data from three independent experiments with three replicates each. Stippled lines (black) depict control mean values = 1. Two-tailed t tests: ***, P < 0.001; **, P < 0.01; and *, P < 0.05. Mann–Whitney rank sum tests: ‡, P < 0.01. ns., not significant. D, Evaluation of YAP signaling. Left, immunoblots of cytoplasmic AMOTL2 (top) and nuclear YAP and TAZ (bottom). Right, real-time RT-qPCR analysis of the YAP signaling target genes AMOTL2, CCN1, and […]. For D and E, lamin B1 loading controls are duplicated for RKO immunoblots (YAP/TAZ and CCND1). E, Evaluation of MYC signaling. Left, immunoblots of nuclear MYC and CCND1. Lamin B1 loading controls are duplicated for ABC-1 immunoblots. […]

UO-31 cells = experiment: MTS colorimetric cell growth assay, UO-31; format: cell-based, human
Text: as §1, §2

COLO 320DM xenografts = experiment: in vivo; format: in vivo, CB17-SCID mice; settings: for body weight changes: tumor-bearing CB17-SCID mice
Protocol: (§3) The experiment using COLO 320DM (CCL-220, RRID: CVCL_0219, ATCC) xenografts was carried out as previously described ([40]) at Reaction Biology. […] Next, the mice were sacrificed, approximately 4 hours after first dose of the day. Protein and RNA extracts were prepared from four moderately sized tumors within each treatment group.

in vivo = format: in vivo, CB17-SCID mice; settings: CB17-SCID, mouse, doses 0.33–10 mg/kg oral twice daily, 4 hours post last dosing, mass spectrometry
Protocol: as §3

[6] = Mouse pharmacokinetic analysis; format: in vivo; settings: CD-1 mice; for MRT last: read-out: MRT(0-24); for CL/F: read-out: Cl or Cl/F (converted); for bioavailability: read-out: F (fraction absorbed/bioavailability)
Protocol: The pharmacokinetic analyses were performed according to the standard protocols of Medicilon as previously described ([22, 27, 32]). […] The same vehicle and oral–twice daily treatment regime were used for all other experiments. Samples were collected after 15 and 30 minutes plus 1, 2, 4, and 6 hours for group 1, and after 6.5, 8, 10, and 24 hours for group 2.

[7] = mouse, plasma, 0.4 mg/kg IV BID
[8] = mouse, plasma, 100 mg/kg PO BID

Chain of PARP1 (P09874 whole entry): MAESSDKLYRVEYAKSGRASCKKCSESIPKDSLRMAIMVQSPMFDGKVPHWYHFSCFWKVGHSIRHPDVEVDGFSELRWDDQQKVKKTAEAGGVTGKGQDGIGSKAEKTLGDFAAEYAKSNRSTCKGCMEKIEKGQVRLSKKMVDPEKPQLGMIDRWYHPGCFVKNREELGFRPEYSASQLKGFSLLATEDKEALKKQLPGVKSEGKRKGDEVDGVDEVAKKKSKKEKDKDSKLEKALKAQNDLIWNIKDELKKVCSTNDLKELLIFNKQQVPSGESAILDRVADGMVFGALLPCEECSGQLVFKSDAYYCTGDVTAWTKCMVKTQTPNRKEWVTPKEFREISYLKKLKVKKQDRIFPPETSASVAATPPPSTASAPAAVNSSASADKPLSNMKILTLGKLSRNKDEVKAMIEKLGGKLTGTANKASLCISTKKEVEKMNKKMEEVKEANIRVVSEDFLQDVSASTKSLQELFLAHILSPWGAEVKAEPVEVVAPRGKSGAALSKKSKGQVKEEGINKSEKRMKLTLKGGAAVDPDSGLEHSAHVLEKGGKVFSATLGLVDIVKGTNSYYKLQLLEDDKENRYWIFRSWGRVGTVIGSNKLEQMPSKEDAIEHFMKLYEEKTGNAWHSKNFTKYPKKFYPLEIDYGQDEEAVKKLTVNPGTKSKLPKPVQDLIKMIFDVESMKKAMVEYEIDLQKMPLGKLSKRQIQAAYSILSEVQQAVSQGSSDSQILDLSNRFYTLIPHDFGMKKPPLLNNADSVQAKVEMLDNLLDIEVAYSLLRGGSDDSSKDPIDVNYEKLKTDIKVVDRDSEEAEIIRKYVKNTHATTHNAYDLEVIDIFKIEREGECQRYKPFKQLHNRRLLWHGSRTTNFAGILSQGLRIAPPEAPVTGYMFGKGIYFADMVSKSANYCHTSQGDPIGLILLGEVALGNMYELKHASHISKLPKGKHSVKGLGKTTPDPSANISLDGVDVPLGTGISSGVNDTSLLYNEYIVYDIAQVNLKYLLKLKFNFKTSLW

CCOc1ccc(-c2nnc([C@H]3C[C@H](NC(=O)c4cccc5nccnc45)C3)n2-c2ccccc2F)nc1 [OM-153]
IC50 (PARP1): > 100000 nM
MYC and CCND1 protein and transcription of MYC and CCND1 (MYC signaling): decreased
GI50 [1]: > 10000 nM
RKO GI25 [1]: > 10,000 nmol/L
GI50 (OVCAR-4 cells; Homo sapiens, OVCAR-4, 120 h): > 10 nM
GI25 (OVCAR-4 cells; OVCAR-4, 5 days): 2.5 nM
IC50 (WNT/β-catenin signaling [2]): 0.63 nM
transcription of YAP signaling target genes AMOTL2, CCN1 and CCN2 (YAP signaling; all TNKSi-sensitive cell lines): reduced transcription
AMOTL2 protein (YAP signaling; all cell lines): cytoplasmic stabilization
COLO320DM GI25 ([3]; 5 days of cultivation): 2.5 nM
GI50 ([3]; 5 days of cultivation, read-out: COLO320DM GI50): 10 nM
COLO 320DM in vitro GI50 value ([3]; same value as 10 nmol/L): 5.1 ng/mL
GI50 (ABC-1 cells): 2 nM
clinical signs of systemic toxicity [4]: No clinical signs of systemic toxicity
transcription of AXIN2 (WNT/β-catenin signaling [5]; COLO 320DM, OVCAR-4 and ABC-1 cells): significantly reduced
AXIN1 protein (WNT/β-catenin signaling [5]; all cell lines (COLO 320DM, UO-31, OVCAR-4, ABC-1, RKO)): stabilized
transcriptionally active form of β-catenin in the nuclei (WNT/β-catenin signaling [5]; only in COLO 320DM and ABC-1 cells): reduction
GI50 (UO-31 cells; Homo sapiens, UO-31, 120 h): > 10 nM
GI25 (UO-31 cells; UO-31, 5 days): 3.5 nM
body weight changes (COLO 320DM xenografts; 10 mg/kg oral twice daily): no changes in body weights that would be suggestive for toxicity
body weight changes (COLO 320DM xenografts; 3.3 and 1 mg/kg oral twice daily): statistically significant body weight reductions
β-catenin protein and WNT/β-catenin signaling target genes DKK1, APCDD1, NKD1 in tumors (COLO 320DM xenografts; immunoblot and real-time qRT-PCR, oral twice daily): dose-dependently reduced
AXIN1 and AXIN2 proteins in the tumor specimen (COLO 320DM xenografts; immunoblot, oral twice daily): stabilized
concentration at 4 h (in vivo; plasma): > 0.01 µM
concentration at 4 h (in vivo; tumor): > 0.01 µM
Cmax2 ([6]; 10 mg/kg PO BID): 2,700 ng/mL
Cmax2 (plasma concentration after the second dose) ([6]; 10 mg/kg oral twice daily): 5.3 µM
plasma concentration after 24 hours ([6]; 10 mg/kg oral twice daily): below the detection threshold
Cmax2 ([6]; 100 mg/kg PO BID): 20,000 ng/mL
Cmax2 (plasma concentration after the second dose) ([6]; 100 mg/kg oral twice daily): 39.2 µM
half-life [6, 7]: 0.59 h
MRT last [6, 7]: 3.6 h
half-life ([6]; mouse, plasma, 2 mg/kg IV BID): 0.56 h
MRT last ([6]; mouse, plasma, 2 mg/kg IV BID): 3.5 h
half-life ([6]; mouse, plasma, 10 mg/kg PO BID): 2.7 h
CL/F ([6]; mouse, plasma, 10 mg/kg PO BID): 1 L/h/kg
bioavailability ([6]; mouse, plasma, 10 mg/kg PO BID): 100%
MRT last ([6]; mouse, plasma, 10 mg/kg PO BID): 5.8 h
half-life [6, 8]: 5.9 h
CL/F [6, 8]: 1.1 L/h/kg
bioavailability [6, 8]: 130%
MRT last [6, 8]: 8.4 h
concentration at 24 h ([6]; mouse, plasma, 100 mg/kg oral twice daily, read-out: plasma concentration after 24 hours): 1900 ng/mL and 3.7 µM
